According to patent publication US20240158348A1, “HERBICIDAL CYCLIC AMIDES N-SUBSTITUTED WITH A HALOALKYLSULFONYLANILIDE GROUP” (FMC Corporation, priority 2021, published 2024):

Columns and labels:
Format in all cases: in vivo
[1] = tested on: corn (Zea mays); experiment: Test A preemergence, corn; conditions: 0 to 100 scale, 10 days
Description: (§1) Seeds of plant species selected from barnyardgrass (Echinochloa crus-galli), blackgrass (Alopecurus myosuroides), corn (Zea mays), foxtail, giant (giant foxtail, Setaria faberi), goosegrass (Eleusine indica), kochia (Bassia scoparia), oat, wild (wild oat, Avena fatua), pigweed, palmer (palmer amaranth, Amaranthus palmeri), pigweed, redroot (redroot pigweed, Amaranthus retroflexus), ragweed (common ragweed, Ambrosia artemisiifolia), ryegrass, Italian (Italian ryegrass, Lolium multiflorum), soybean (Glycine max), and wheat (Triticum aestivum) were planted into a blend of loam soil and sand and treated preemergence with a directed soil spray using test chemicals formulated in a non-phytotoxic solvent mixture which included a surfactant.
(§2) At the same time, plants selected from these crop and weed species and also galium (catchweed bedstraw, Galium aparine) and horseweed (Erigeron canadensis) were planted in pots containing the same blend of loam soil and sand and treated with postemergence applications of test chemicals formulated in the same manner. Plants ranged in height from 2 to 10 cm and were in the one- to two-leaf stage for the postemergence treatment. Treated plants and untreated controls were maintained in a greenhouse for 10 days, after which time all treated plants were compared to untreated controls and visually evaluated for injury. Plant response ratings, summarized in Table A, are based on a 0 to 100 scale where 0 is no effect and 100 is complete control. A dash (-) response means no test result.

[2] = tested on: foxtail, giant (giant foxtail, Setaria faberi); experiment: Test A postemergence, giant foxtail; conditions: post-emergence, 240 h, 0 to 100 scale, 10 days, read-out: Plant response rating, Foxtail, Giant
Description: as §1, §2

[3] = tested on: pigweed, palmer (palmer amaranth, Amaranthus palmeri); experiment: Test A postemergence, palmer amaranth; conditions: 0 to 100 scale, 10 days
Description: as §1, §2

[4] = tested on: pigweed, palmer (palmer amaranth, Amaranthus palmeri); experiment: Test A preemergence, palmer amaranth; conditions: 0 to 100 scale, 10 days
Description: as §1, §2

[5] = tested on: oat, wild (wild oat, Avena fatua); experiment: Test A preemergence, wild oat; conditions: 0 to 100 scale, 10 days
Description: as §1, §2

[6] = tested on: barnyardgrass (Echinochloa crusgalli); experiment: Test B flooded paddy test, barnyardgrass; conditions: Echinochloa crus-galli; 250 g ai/ha, Flood; scale of 0 to 100 where 0 is no effect and 100 is complete control; visually evaluated after 10 to 14 days; read-out: Plant response rating, Barnyardgrass
Description: Plant species in the flooded paddy test selected from barnyardgrass (Echinochloa crusgalli), ducksalad (Heteranthera limosa), rice (Oryza sativa), and sedge, umbrella (small-flower umbrella sedge, Cyperus difformis) were grown to the 2-leaf stage for testing. At time of treatment, test pots were flooded to 3 cm above the soil surface, treated by application of test compounds directly to the paddy water, and then maintained at that water depth for the duration of the test. Treated plants and controls were maintained in a greenhouse for 10 to 14 days, after which time all species were compared to controls and visually evaluated. Plant response ratings, summarized in Table B, are based on a scale of 0 to 100 where 0 is no effect and 100 is complete control. A dash (-) response means no test result.

[7] = tested on: soybean (Glycine max); experiment: Test A preemergence, soybean; conditions: 0 to 100 scale, 10 days
Description: as §1, §2

[8] = tested on: oat, wild (wild oat, Avena fatua); experiment: Test A postemergence, wild oat; conditions: 0 to 100 scale, 10 days
Description: as §1, §2

[9] = tested on: ragweed (common ragweed, Ambrosia artemisiifolia); experiment: Test A preemergence, ragweed; conditions: pre-emergence, 240 h, 0 to 100 scale, 10 days, read-out: Plant response rating, Ragweed
Description: as §1, §2

[10] = tested on: ragweed (common ragweed, Ambrosia artemisiifolia); experiment: Test A postemergence, ragweed; conditions: post-emergence, 240 h, 0 to 100 scale, 10 days, read-out: Plant response rating, Ragweed
Description: as §1, §2

Cc1cc(C)c(N(COC(=O)C(C)(C)C)S(=O)(=O)C(F)(F)F)cc1N1CCC(OC2CCC2)C1=O (stereo not shown) [Compound 8, [[5-[3-(cyclobutyloxy)-2-oxo-1-pyrrolidinyl]-2,4-dimethylphenyl][(trifluoromethyl)sulfonyl]amino]methyl 2,2-dimethylpropanoate]
Plant response rating, Corn ([1]; 31 g ai/ha): 0
Plant response rating, Corn ([1]; 125 g ai/ha): 10
pest or weed control at 31 g/ha ([2]; 31 g ai/ha): 30%
pest or weed control at 125 g/ha ([2]; 125 g ai/ha): 80%
Plant response rating, Pigweed, Palmer ([3]; 31 g ai/ha): 60
Plant response rating, Pigweed, Palmer ([3]; 125 g ai/ha): 90
Plant response rating, Pigweed, Palmer ([4]; 31 g ai/ha): 30
Plant response rating, Pigweed, Palmer ([4]; 125 g ai/ha): 90
Plant response rating, Oat, Wild ([5]; 31 g ai/ha): 0
Plant response rating, Oat, Wild ([5]; 125 g ai/ha): 70
pest or weed control at 250 g/ha [6]: 98%
Plant response rating, Soybean ([7]; 31 g ai/ha): 40
Plant response rating, Soybean ([7]; 125 g ai/ha): 50
Plant response rating, Oat, Wild ([8]; 31 g ai/ha): 10
Plant response rating, Oat, Wild ([8]; 125 g ai/ha): 30
pest or weed control at 31 g/ha ([9]; 31 g ai/ha): 20%
pest or weed control at 125 g/ha ([9]; 125 g ai/ha): 90%
pest or weed control at 31 g/ha ([10]; 31 g ai/ha): 70%
pest or weed control at 125 g/ha ([10]; 125 g ai/ha): 90%
